From patent US11904051B2, “Shear stress sensitive liposomes” (Universität Basel, priority 2018, dated 2024)
Values joined by “and” are separate entries in the source; they are usually repeats but may differ in a detail not shown here. Equal values may be shown once.

Experiments:
Type in all cases: physicochemical
[1] = Dynamic light scattering of liposomes (Delsa Nano C); conditions: 25 ° C.
Protocol: The lipid concentration of the two formulations was determined using the phosphate test (Stalder and Zumbuehl. CHIMIA International Journal for Chemistry 2013, 67, 819-821). Size and size distribution of the liposomes were quantified by means of dynamic light scattering (DLS) using a Delsa Nano C (Beckman Coulter, USA). DLS measurements were performed at a temperature of 25° C., using two laser diodes working at a wavelength of 658 nm. The scattering angle was set to 165 degrees. Cryo-TEM images of Pad-PC-Pad liposomal suspension were taken by mounting the liposomal suspension on glow-discharged holey carbon grids, quickly frozen by a Cryoplunge CP3 system (Gatan, USA), and transferred to a JEM2200FS transmission electron microscope (JEOL, Japan) using a Gatan626 cryo-holder. Cryo-TEM micrographs were recorded at an acceleration voltage of 200 kV at a magnification of 20,000, 4-8 μm under-focus, and a dose of 10 electrons=Å^2, using a F416 CMOS detector (TVIPS, Germany).

[2] = SAXS measurement of liposomes under static conditions (glass capillary); conditions: static condition
Excerpt: The investigated q-range between 0:02 nm^−1 and 1:65 nm^−1 corresponds to real-space distances d between 314 and 3 nm and, therefore, covers almost the entire nanometer range relevant for the characterization of the liposomes. The diagrams in FIG. 11 show the radially integrated scattering signal of DPPC-DSPE/PEG (top panel) and Pad-PC-Pad (bottom panel) liposomes acquired in suitable glass capillaries.
Suitable models are often utilized in the interpretation of the scattering signal of the system investigated. Herein, the scattering curves of DPPC/DSPE-PEG and Pad-PC-Pad were both fitted using a decoupling approach, which allowed to factorize the total form factor as product of a cross section term for long dimension and a cross section term for shorter dimension (Porod et al., IV. Acta Physica Austriaca 1948, 2, 255-292). To fit the form factor related to the overall shape of DPPC/DSPE-PEG, a thin spherical shell model was used (Breÿler et al., Journal of Applied Crystallography 2015, 48, 1587-1598), whereas the intensity peak related to the bilayer was fitted using a function for a bilayer with a Gaussian electron density profile (Pabst et al., Journal of Applied Crystallography 2003, 36, 1378-1388; Pabst et al., Physical Review E 2000, 62, 4000). The model utilized to fit the bilayer provided the bilayer thickness as the distance head-to-head dhh between the two phospholipid heads and the standard deviation over the phoshpolipid heads.
To fit the form factor related to the overall shape of Pad-PC-Pad a thin ellipsoidal shell model was used (Olson et al., Biochimica et Biophysica Acta (BBA)—Biomembranes 1979, 557, 9-23). An eccentricity E of 0.43 was found. As for DPPC/DSPE-PEG, the intensity peak related to the phospholipid head-to-head distance dhh was fitted using a function for a bilayer with a Gaussian electron density profile (Pabst et al., Journal of Applied Crystallography 2003, 36, 1378-1388; Pabst et al., Physical Review E 2000, 62, 4000) and a normal distribution over dhh. […]

[3] = Surface pressure/area per molecule isotherms of monolayers on Langmuir-Pockels trough
Protocol: The surface pressure/area per molecule isotherm measurements were carried out on a Langmuir-Pockels trough, equipped with a Wilhelmy paper balance (accuracy 0.2 mN/m), at the air-water interface. The isotherms were measured at different subphase temperatures between 5° C. and 25° C. (FIG. 2).
Above 10 C, a plateau of a mixed expanded/condensed phase transition was observed. The appearance of the plateau is accompanied by a shift of the initial lift-off area per molecule to higher values. The plateau represents the first-order phase transition from a liquid-expanded (LE) to a liquid-condensed (LC) phase. The plateau is not fully horizontal, especially it becomes steeper as the temperature increases. The monolayers themselves are stable over the measurable range of surface pressures up to an instrument-based cut-off at 51 mN/m. From the onset of the plateau it is possible to determine the temperature-dependent main transition pressure Πt. For 1,3-diheptadecanamidopropan-2-yl (2-(trimethylammonio) ethyl) phosphate this dependence can be described by a linear function (FIG. 3). The experimental data only deviates from this linear function in close vicinity of the minimum transition temperature T0 below which the transition into a condensed phase directly starts from the gas-analog state (re-sublimation process). […]

Row | mean diameter (DLS) [1] | polydispersity index (PDI) [1] | head-to-head distance dhh ([2]; bilayer Gauss electron density profile model) | Radius of gyration Rg ([2]; glass capillary, flow rate 0) | eccentricity ε ([2]; thin ellipsoidal shell model) | minimum transition temperature T0 of monolayer ([3]; air-water interface) | critical temperature of monolayers ([3]; extrapolation of ΔS to zero) | SMILES
1 | 131.6+/−0.9 nm | 0.103+/−0.009 | 3.3±0.8 nm and 3.3 nm | 60.3 nm and 60.3 ± 0.4 nm | 0.43 |  |  | CCCCCCCCCCCCCCCC(=O)NCC(CNC(=O)CCCCCCCCCCCCCCC)OP(=O)([O-])OCC[N+](C)(C)C [Pad-PC-Pad, 1,3-palmitoylamido-1,3-deoxy-sn-glycero-2-phosphatidylcholine]
2 |  |  |  |  |  | 11.2 °C | 306.3 K | CCCCCCCCCCCCCCCCC(=O)NCC(CNC(=O)CCCCCCCCCCCCCCCC)OP(=O)([O-])OCC[N+](C)(C)C [Rad-PC-Rad, 1,3-diheptadecanamidopropan-2-yl (2-(trimethylammonio)ethyl) phosphate]
